Experiment [1] deals with Human recombinant DHX9 protein (Homo sapiens (Human), UniProt Q08211). In words: DHX9 ATPase assay (ADP-Glo). It is filed as biochemical. The settings on record: for IC50: read-out: DHX9 Biochemical Inflection Point. Background: In ADP-Glo the light output rises with the ADP produced.
A further experiment has as its system NCI-H747 cells. Put plainly: DHX9 cellular proliferation assay (CellTiter-Glo), NCI-H747 (CRC-MSS). It is filed as cell-based. To be noted: read-out: H747 (CRC-MSS) Antiproliferative. On the technique in general: ATP-based viability assays read luminescence as a measure of living cells.
A further experiment has as its system LS411N cells. Put plainly: DHX9 cellular proliferation assay (CellTiter-Glo), LS411N (CRC-MSI). The experiment is classed as cell-based. The settings on record: performed at Pharmaron, read-out: LS411N (CRC-MSI-H) Antiproliferative.
Experiment [2] deals with circBRIP1 in HCT116 cells. In words: DHX9 circBRIP1 cellular target engagement SYBR Green assay. It is filed as cell-based.
The subject of experiment [3] is circBRIP1 in HCT116 cells. In words: DHX9 circBRIP1 cellular target engagement TaqMan multiplex assay. To be noted: read-out: DHX9 Cellular Target Engagement. The experiment is classed as cell-based. Background: Quantitative PCR measures a nucleic acid by following its amplification.
Setting [4] is: Homo sapiens, NCI-H747, performed at Pharmaron.
Setting [5] is: values marked +, read-out: DHX9 Cellular Target Engagement EC50.
Where [6] appears, read: Homo sapiens, HCT-116, Taqman assay (*).

Molecules are shown by their SMILES. Read-outs that look alike come from different tables or passages of the source.

Chain of Human recombinant DHX9 protein (Q08211 whole entry): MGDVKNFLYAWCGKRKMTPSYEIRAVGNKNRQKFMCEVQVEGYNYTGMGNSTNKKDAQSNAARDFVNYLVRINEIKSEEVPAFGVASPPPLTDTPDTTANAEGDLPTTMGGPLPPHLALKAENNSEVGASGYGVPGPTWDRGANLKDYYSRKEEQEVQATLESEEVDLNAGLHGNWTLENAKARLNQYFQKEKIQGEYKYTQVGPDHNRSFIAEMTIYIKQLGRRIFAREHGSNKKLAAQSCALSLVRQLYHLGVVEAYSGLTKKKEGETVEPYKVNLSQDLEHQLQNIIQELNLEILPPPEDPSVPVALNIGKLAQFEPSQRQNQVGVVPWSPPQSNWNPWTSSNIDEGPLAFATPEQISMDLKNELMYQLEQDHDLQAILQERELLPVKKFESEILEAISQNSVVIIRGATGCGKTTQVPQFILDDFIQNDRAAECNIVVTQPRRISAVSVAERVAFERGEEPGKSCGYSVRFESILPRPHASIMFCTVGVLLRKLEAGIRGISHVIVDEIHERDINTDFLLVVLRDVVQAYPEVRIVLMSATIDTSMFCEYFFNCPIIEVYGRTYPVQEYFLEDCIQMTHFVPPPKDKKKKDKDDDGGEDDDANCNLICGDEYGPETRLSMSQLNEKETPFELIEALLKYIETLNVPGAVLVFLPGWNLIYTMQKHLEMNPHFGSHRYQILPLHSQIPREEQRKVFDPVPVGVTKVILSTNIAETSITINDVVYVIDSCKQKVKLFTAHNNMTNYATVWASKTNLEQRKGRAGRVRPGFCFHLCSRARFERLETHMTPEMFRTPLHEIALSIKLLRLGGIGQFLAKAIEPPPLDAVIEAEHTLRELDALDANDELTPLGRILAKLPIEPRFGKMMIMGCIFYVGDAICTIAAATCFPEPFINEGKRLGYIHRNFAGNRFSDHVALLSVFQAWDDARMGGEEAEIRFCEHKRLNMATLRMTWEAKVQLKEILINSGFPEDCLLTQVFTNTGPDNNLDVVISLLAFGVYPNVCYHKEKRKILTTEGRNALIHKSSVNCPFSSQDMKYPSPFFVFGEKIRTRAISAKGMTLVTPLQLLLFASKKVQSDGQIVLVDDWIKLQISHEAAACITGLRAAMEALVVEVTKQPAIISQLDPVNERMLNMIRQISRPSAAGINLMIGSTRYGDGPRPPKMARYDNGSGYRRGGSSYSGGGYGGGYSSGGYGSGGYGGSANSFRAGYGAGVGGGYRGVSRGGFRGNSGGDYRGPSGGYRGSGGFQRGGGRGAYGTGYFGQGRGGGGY

Turning to `Cc1cc(C(=O)Nc2cc(Cl)cc(NS(C)(=O)=O)c2)cn1-c1ccc(N(C)C2CCOC2)cn1` (stereo not shown) [Example 674], in experiment [1], the “DHX9 Biochemical Max Inhibition” value turned out to be 66.5 and the IC50 was 3.9 nM. For the same compound, in the experiment on NCI-H747 cells (setting [4]), the IC50 was greater than 10000 nM.
Regarding `Cc1cc(C(=O)Nc2cc(Cl)cc(NS(C)(=O)=O)c2)cn1-c1ccc(N(C)C2CCOC2)cn1` (stereo not shown) [Example 675], the IC50 in the experiment with LS411N cells is 121 nM; in experiment [1], 4.1 nM; in the experiment on NCI-H747 cells (performed at Pharmaron), greater than 10000 nM. Further, the “DHX9 Biochemical Max Inhibition” value in experiment [1] worked out at 71.2. In addition, the EC50 in experiment [2] (SyBr assay (^+), read-out: DHX9 Cellular Target Engagement) was determined as 23.2 nM.
With `Cc1sc(C(=O)Nc2cc(Cl)cc(NS(C)(=O)=O)c2)cc1-c1ncc(N2CC(C(F)(F)F)C2)cc1F` [Example 477], the IC50 with LS411N cells was 80.2 nM; in experiment [1], 46.8 nM; with NCI-H747 cells (performed at Pharmaron) it was 2520 nM. For the same compound, the EC50 in experiment [3] (Taqman assay (*)) was determined as 24.2 nM. The “DHX9 Biochemical Max Inhibition” value in experiment [1] was 68.
For `CS(=O)(=O)Nc1cc(Cl)cc(NC(=O)c2cnn(-c3ncccc3OCc3cc(F)cc(F)c3)c2)c1` [Example 256], in experiment [1], the “DHX9 Biochemical Max Inhibition” value was 70.1% and the IC50 worked out at 403 nM. Besides, the EC50 in experiment [2] (setting [5]) came to 2030 nM.
In the case of `Cc1sc(C(=O)Nc2cc(Cl)cc(NS(C)(=O)=O)c2)cc1-c1ncc(OC(C)C)cc1F` [Example 455], the IC50 in the experiment with LS411N cells (Homo sapiens, LS-411N) is 88.6 nM; in experiment [1], 34.2 nM; with NCI-H747 cells (setting [4]) it was 6780 nM. Besides, in experiment [3] (setting [6]), the EC50 is 57.6 nM. The “DHX9 Biochemical Max Inhibition” value in experiment [1] is given as 67.3.
On to `Cc1sc(C(=O)Nc2cc(Cl)cc(NS(C)(=O)=O)c2)cc1-c1ncccc1OC(C)c1cncc(F)c1` (stereo not shown) [Example 630], for which, in experiment [1], the “DHX9 Biochemical Max Inhibition” value is reported as 67 and the IC50 worked out at 22.9 nM. For the same compound, the IC50 in the experiment with NCI-H747 cells (setting [4]) is greater than 10000 nM.
For the compound `CCc1sc(C(=O)Nc2cc(Cl)cc(NS(C)(=O)=O)c2)cc1-c1ccccn1` [Example 232], in experiment [1], the “DHX9 Biochemical Max Inhibition” value was 77.5% and the IC50 came out at 20.2 nM. In addition, the EC50 in experiment [2] (Homo sapiens, HCT-116, values marked +, read-out: DHX9 Cellular Target Engagement EC50) was 61 nM.
In the case of `CS(=O)(=O)Nc1cc(Cl)cc(NC(=O)c2cnn(-c3c(F)cc(F)cc3OCc3cnco3)c2)c1` [Example 429], in experiment [1], the “DHX9 Biochemical Max Inhibition” value turned out to be 59.6 and the IC50 was 255 nM. Further, the EC50 in experiment [2] (Homo sapiens, HCT-116, SyBr assay (^+), read-out: DHX9 Cellular Target Engagement) worked out at 1180 nM.
As to `Cc1cc(C(=O)Nc2cc(Cl)cc(NS(C)(=O)=O)c2)cn1-c1ncc(N2CCC(F)(F)C2)cc1F` [Example 408], the IC50 in the experiment with LS411N cells (Homo sapiens, LS-411N) worked out at 215 nM; in experiment [1] it was 41.6 nM; in the experiment on NCI-H747 cells (setting [4]), 8160 nM. The EC50 in experiment [3] (setting [6]) was 67.1 nM. Further, in experiment [1], the “DHX9 Biochemical Max Inhibition” value was found to be 63.
Turning to `CS(=O)(=O)Nc1cc(Cl)cc(NC(=O)c2cnn([C@@H]3CCCC[C@@H]3O)c2)c1` (relative stereo) [Example 153, N-(3-chloro-5-(methylsulfonamido)phenyl)-1-(2-cis-hydroxycyclohexyl)-1H-pyrazole-4-carboxamide], in experiment [1], the “DHX9 Biochemical Max Inhibition” value is 59.7% and the IC50 amounted to 256 nM. The EC50 in experiment [2] (setting [5]) was 6110 nM.
For `CCS(=O)(=O)Nc1cc(Cl)cc(NC(=O)c2cc(-c3ncc(N4CC(F)(F)C4)cc3F)n(C)c2)c1` [Example 517], the IC50 with LS411N cells (Homo sapiens, LS-411N) is 135 nM; in experiment [1], 23.7 nM; in the experiment on NCI-H747 cells (setting [4]), 2220 nM. The EC50 in experiment [3] (setting [6]) amounted to 16.8 nM. Also, the “DHX9 Biochemical Max Inhibition” value in experiment [1] stood at 54.1.
With `Cc1sc(C(=O)Nc2cc(Cl)cc(NS(C)(=O)=O)c2)cc1-c1ncccc1OC(C)c1cncc(F)c1` (single isomer, unassigned) [Example 631], the IC50 in the experiment with LS411N cells (Homo sapiens, LS-411N) stood at 156 nM; in experiment [1] it was 31.2 nM; in the experiment with NCI-H747 cells (setting [4]), 4880 nM. For the same compound, the EC50 in experiment [3] (setting [6]) was determined as 59.3 nM. Further, the “DHX9 Biochemical Max Inhibition” value in experiment [1] came out at 64.4.
As for `Cc1sc(C(=O)Nc2cc(Cl)cc(NS(C)(=O)=O)c2)cc1-c1ncc(N2CC(C(F)(F)F)C2)cc1F` [Example 460, N-(3-chloro-5-(methylsulfonamido)phenyl)-4-(3-fluoro-5-(3-(trifluoromethyl)azetidin-1-yl)pyridin-2-yl)-5-methylthiophene-2-carboxamide], the IC50 with LS411N cells is 221 nM. For the same compound, the EC50 in experiment [3] (Taqman assay (*)) turned out to be 58.6 nM. Moreover, in experiment [1], the “DHX9 Biochemical Max Inhibition” value is reported as 60.9 and the IC50 stood at 131 nM.

Values taken from US20240316047A1, “INHIBITORS OF RNA HELICASE DHX9 AND USES THEREOF” (ACCENT THERAPEUTICS, INC., priority 2022, published 2024).
